The values that follow come from ChEMBL document CHEMBL3232737, “Synthesis and in vitro evaluation of small-molecule [18F] labeled gonadotropin-releasing hormone (GnRH) receptor antagonists as potential PET imaging agents for GnRH receptor expression” (Bioorg Med Chem Lett, 2014).

Each structure is given as a SMILES string.

For data set [1], the target named is T1, Gonadotropin-releasing hormone receptor (Rattus norvegicus, UniProt P30969).
T1 sequence (P30969 whole entry): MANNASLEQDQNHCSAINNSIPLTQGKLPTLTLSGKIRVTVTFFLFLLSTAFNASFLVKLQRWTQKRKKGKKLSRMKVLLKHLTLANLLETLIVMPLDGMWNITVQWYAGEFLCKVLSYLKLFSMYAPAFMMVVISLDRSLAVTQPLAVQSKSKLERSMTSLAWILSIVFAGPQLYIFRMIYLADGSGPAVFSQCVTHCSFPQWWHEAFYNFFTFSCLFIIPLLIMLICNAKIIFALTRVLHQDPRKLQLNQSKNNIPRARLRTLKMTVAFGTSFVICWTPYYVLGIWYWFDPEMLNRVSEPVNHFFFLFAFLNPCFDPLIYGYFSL
Put plainly: Displacement of [125I]Triptorelin from rat full-length gonadotropin-releasing hormone receptor expressed in HEK293 cells. The class given is cell-based. For orientation: Loss of bound radioactivity is the signal in a displacement assay; it reports binding, not function.

Data set [2] in a line: Octanol-PBS partition coefficient, log P of the compound at 10 kBq at pH 7.4 by gamma counting analysis. The class given is physicochemical.
For data set [3], the target named is T2, Gonadotropin-releasing hormone receptor (Homo sapiens, UniProt P30968).
T2 sequence (P30968 whole entry): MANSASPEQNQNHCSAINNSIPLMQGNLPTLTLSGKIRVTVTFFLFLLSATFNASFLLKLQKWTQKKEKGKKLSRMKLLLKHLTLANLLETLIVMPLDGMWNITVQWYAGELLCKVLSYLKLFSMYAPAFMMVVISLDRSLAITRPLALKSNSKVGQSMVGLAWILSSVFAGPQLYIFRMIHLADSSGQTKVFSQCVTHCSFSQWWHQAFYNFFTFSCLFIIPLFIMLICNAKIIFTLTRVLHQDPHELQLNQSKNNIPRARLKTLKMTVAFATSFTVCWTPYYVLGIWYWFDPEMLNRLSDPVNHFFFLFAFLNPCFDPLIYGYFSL
Put plainly: Binding affinity to human gonadotropin-releasing hormone receptor by radioligand displacement assay.

The target of data set [4] is T3, Gonadotropin-releasing hormone receptor (Mus musculus, UniProt Q01776).
T3 sequence (Q01776 whole entry): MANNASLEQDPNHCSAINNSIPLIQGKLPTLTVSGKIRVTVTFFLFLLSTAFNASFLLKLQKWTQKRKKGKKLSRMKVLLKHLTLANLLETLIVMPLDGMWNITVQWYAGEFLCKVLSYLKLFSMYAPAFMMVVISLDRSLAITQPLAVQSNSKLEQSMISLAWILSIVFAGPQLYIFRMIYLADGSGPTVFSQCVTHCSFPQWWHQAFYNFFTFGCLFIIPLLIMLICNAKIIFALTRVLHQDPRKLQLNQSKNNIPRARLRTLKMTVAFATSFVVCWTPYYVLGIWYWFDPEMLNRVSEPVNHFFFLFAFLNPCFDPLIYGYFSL
Put plainly: Binding affinity to mouse gonadotropin-releasing hormone receptor by radioligand displacement assay.

In general, Ki refers to a measure of affinity in units of concentration, obtained from inhibition or displacement. Read a low Ki as tighter binding. `COc1nc(OCCF)nc(OC)c1NC(=O)c1ccc(Oc2cc3c(cc2C)CCC3(C)C)o1` yielded a Ki in data set [1] of 1.36 nM. This lies in the single-digit nanomolar range.

By logD is commonly meant lipophilicity at a set pH, counting ionised and neutral species. The molecule `COc1nc(OCC[18F])nc(OC)c1NC(=O)c1ccc(Oc2cc3c(cc2C)CCC3(C)C)o1` displayed a logD in data set [2] of 1.74.

`COc1nc(F)nc(OC)c1NC(=O)c1ccc(Oc2cc3c(cc2C)CCC3(C)C)o1` registered a Ki in data set [1] of 42 nM.

`COc1cc(OC)c(NC(=O)c2ccc(Cc3cc4c(cc3C)C(C)(C)CCC4(C)C)o2)c(OC)c1`: the Ki came out at 6 nM in data set [3] and 2.2 nM in data set [4].
